Source: patent US11766434B2, “Pyrimidinone derivatives as CDC7 inhibitors” (Cancer Research Technology Limited, priority 2016, dated 2023)

What was measured:
Cdc7/Dbf4 = Cdc7/Dbf4 (Homo sapiens, UniProt O00311); assay: Cdc7 biochemical assay Method 2: Cdc7/Dbf4 Enzyme TR-FRET Assay measuring pS40MCM2; details: pS40 MCM2 peptide, 1 μM ATP, 25° C., 120 minutes, read-out: Biochemical Method 2 (pIC50) (converted)
Description: This protocol describes a method for assaying a compounds' ability to inhibit Cdc7 activity by measuring pS40MCM2 levels in a Cdc7/Dbf4 Enzyme TR-FRET Assay.
2.5 nM Cdc7/Dbf4 was incubated with 100 nM of biotin-labelled peptide 35-TDALTS(pS)PGRDLP in the presence of 1 μM ATP at 25° C. for 120 minutes. The phosphorylation of the peptide was detected using TR-FRET. Anti-Mcm2 (pS40) antibody, Terbium anti-rabbit secondary antibody and Streptavidin-Alexa Fluor488 form the detection system.

Cdc7 [1] = target: T1, Cdc7 (Homo sapiens, UniProt O00311); assay: Cdc7 cell pharmacodynamics assay Method 2: pS40MCM2 levels in HCT116 cells; type: cell-based; parameters: endogenous in cells; details: 18 hours treatment, read-out: Biomarker Method 2 (pEC50) (converted)
T1 sequence (O00311 whole entry): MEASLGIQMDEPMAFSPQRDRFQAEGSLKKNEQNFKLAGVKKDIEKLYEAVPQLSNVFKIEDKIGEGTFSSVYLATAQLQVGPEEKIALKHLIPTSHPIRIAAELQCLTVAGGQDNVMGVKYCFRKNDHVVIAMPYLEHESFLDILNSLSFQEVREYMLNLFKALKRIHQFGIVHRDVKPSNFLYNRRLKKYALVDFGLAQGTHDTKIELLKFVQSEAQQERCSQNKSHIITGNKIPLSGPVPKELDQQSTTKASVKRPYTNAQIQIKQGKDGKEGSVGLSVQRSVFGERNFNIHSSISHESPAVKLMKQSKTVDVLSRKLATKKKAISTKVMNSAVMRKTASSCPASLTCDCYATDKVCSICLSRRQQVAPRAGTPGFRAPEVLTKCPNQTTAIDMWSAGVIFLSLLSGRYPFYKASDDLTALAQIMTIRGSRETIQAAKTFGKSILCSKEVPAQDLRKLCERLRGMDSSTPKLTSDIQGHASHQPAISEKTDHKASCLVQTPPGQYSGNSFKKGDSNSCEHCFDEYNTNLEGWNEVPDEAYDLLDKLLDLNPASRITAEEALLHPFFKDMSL
T1 sequence (Q9UBU7 whole entry partner): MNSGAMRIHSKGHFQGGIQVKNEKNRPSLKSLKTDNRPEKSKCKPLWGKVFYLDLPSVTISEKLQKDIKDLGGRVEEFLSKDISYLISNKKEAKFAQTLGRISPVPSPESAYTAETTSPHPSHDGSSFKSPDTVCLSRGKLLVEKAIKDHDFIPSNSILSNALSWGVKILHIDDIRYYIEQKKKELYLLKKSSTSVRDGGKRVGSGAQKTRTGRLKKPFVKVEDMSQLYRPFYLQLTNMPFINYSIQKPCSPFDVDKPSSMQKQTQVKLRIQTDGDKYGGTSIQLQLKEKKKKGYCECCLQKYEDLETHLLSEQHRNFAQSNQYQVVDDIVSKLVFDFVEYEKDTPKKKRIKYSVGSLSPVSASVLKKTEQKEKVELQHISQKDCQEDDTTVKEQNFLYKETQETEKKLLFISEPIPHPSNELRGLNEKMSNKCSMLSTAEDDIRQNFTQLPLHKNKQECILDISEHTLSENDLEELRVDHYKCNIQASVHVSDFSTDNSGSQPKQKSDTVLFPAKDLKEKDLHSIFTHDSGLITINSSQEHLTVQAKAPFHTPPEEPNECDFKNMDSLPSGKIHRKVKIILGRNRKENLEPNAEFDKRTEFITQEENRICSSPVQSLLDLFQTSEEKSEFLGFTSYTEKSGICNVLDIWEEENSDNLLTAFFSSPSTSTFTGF
Excerpt: This protocol describes a method to investigate the inhibition of Cdc7 activity by measuring pS40MCM2 levels in cells, after treatment with compounds.
• HCT116 cells (ATCC, #CCL-247) • McCoys 5A with L-glutamine (Cellgro, #10-050-CV) • 10% FCS (Cellgro, #35-010-CV) • D-PBS without CaCl2 and MgCl2 (Cellgro, #21-031-CV) • Trypsin/EDTA (Cellgro, #25-052-CL) • BSA (Calbiochem, 126593) • Cell Extraction Buffer (Invitrogen FNN0011) • Protease inhibitor cocktail (Sigma P-2714) • PMSF 0.3M stock in DMSO (Sigma P7626) • Antibody—rabbit pMCM2 Ser40 (Abeam, AB133243) • Antibody—goat MCM2 (Bethyl #A300-122A) • Antibody—goat Anti Rabbit IgG HRP (Thermo, 31462) • SuperSignal ELISA Pico Chemiluminescent Substrate (Perbio Science UK Ltd 37069) • 10×PBS (Growcells, MRGF-6236) • Triton X100 (Sigma, P-T8787) • DMSO (Fisher, D128-1) • 2-Propanol (J. T. Baker, 9095-03) Method • Seed 1×10^6 HCT116 cells into each of two 175 cm^2 flask containing 30 mL Cell Growth Media and incubate at 37° C., 5% CO2 for 3 days. • Harvest the cells from one T175 cm^2 flask and count. • Dilute with Cell Growth Media to a cell density of 2×10^5. Dispense 100 μL to each well (20,000 HCT116 cells/well) of TC treated 96-well plate(s). • Allow cells to settle overnight in incubator set at 37° C. and 5% CO2. • Cell treatment: Transfer 0.25 μL/well from the compound plate to the wells of the cell plate(s). This is a 1:400 dilution of compound in the assay. • Once all cells are treated place the cells back to the incubator and incubate for 18 hours. • Dilute the capture antibody (total MCM2 #A300-122A) 1 in 250 in the required volume of PBS (5 mL per assay plate, plus 5 mL for dead volume) and add 50 μL to each well of a Hybond plate except wells A12 & B12. Seal the plate and incubate at room temperature fora minimum of 2 hours. • Defrost aliquot of Invitrogen Cell Extraction Buffer (FNN0011) on ice and supplement with appropriate volume of both Sigma protease inhibitor cocktail (P-2714) and PMSF (final cone 1 mM from a 1 M stock in DMSO). • After the 6 hour or 18 hour cell treatment time, tap out the media from the assay plates and place them in the −70° C. freezer for at least 5 minutes. • Flick out the remaining liquid in the previously prepared capture Ab plate(s) and add 200 μL 2% BSA per well. Incubate for 1 hour at room temperature. • Remove plates from freezer and add 20 μL of ice cold complete lysis buffer. Incubate cells for 30 minutes at 4° C. • Add 30 μL per well 2% BSA • At the end of the 1 hour incubation, wash the Capture/ELISA plate(s) with Wash Buffer on the BioTek plate washer. • Transfer 40 μL per well of the lysis plate(s) to the same wells in the Capture/ELISA plate. Incubate cells overnight at 4° C. • At the end of the overnight incubation, wash the ELISA plate(s) with Wash Buffer on BioTek plate washer. • Prepare Detection Antibody Buffer and dispense 50 μL to all wells of ELISA plate(s) except wells G1 & H1. Cover plate and incubate at room temperature for 2 hours with gentle shaking. • At the end of the 2 hour incubation, wash the ELISA plate(s) with Wash Buffer on the BioTek plate washer. • Prepare the Conjugated Antibody Buffer and dispense 50 μL to all wells of ELISA plate(s). • Cover the plate and incubate at room temperature for 1 hour with gentle shaking. • At the end of the 1 hour incubation, wash the ELISA plate(s) with Wash Buffer on the BioTek plate washer. • Prepare Substrate Buffer and dispense 50 μL to all wells of ELISA plate(s). • Incubate for a minimum of 10 minutes and read plates on the EnVision 2100 Multilabel Reader (Mirror: Luminescence (404) & Luminescence 700 (212); Measurement Height: 6.5 mm; Measurement Time: 0.2 s). Method 3

Cdc7 [2] = target: T1, Cdc7; assay: Cdc7 cell pharmacodynamics assay Method 3: pS53MCM2 levels in SW48 cells; type: cell-based; parameters: endogenous in cells; host or cells: SW48; details: 6 hours treatment, read-out: Biomarker Method 3 (pEC50) (converted)
Excerpt: This protocol describes a method to investigate the inhibition of Cdc7 activity by measuring pS53MCM2 levels in cells, after treatment with compounds.
• SW48 cells • RPMI 1640 (Sigma, R5886) • 10% FCS (Sera Laboratories International Ltd, EU000F Batch: 108005) • 100× L-Glutamine (Invitrogen, 25030-024) • D-Glucose Solution (10%) (Sigma, G8644) • HEPES Buffer Solution (Sigma, 83264) • Sodium Pyruvate (Sigma, S8636) • PBS (Fisger, BP399-4) • Trypsin/EDTA (Invitrogen 25300-054) • 2% BSA in PBS • Cell Extraction Buffer (Invitrogen FNN0011) • Protease inhibitor cocktail (Sigma P-2714) • PMSF 0.3M stock in DMSO (Sigma P7626) • Antibody—rabbit pMCM2 Ser53 (Bethyl #A300-756A) • Antibody—goat MCM2 (Bethyl #A300-122A) • Antibody—goat Anti Rabbit IgG HRP (Perbio Science UK Ltd 31462) • SuperSignal ELISA Pico Chemiluminescent Substrate (Perbio Science UK Ltd 37070) Method • Plate 30,000 SW48 cells per well in standard TC treated 96 well plate in 100 μL complete RPMI 1640 medium. • Allow cells to settle overnight in incubator set at 37° C. and 5% CO2. • Cell treatment: prepare a 384 well plate containing 80 μl PBS/well. The PBS should be at room temperature—to be referred to as intermediate plate. Transfer 2 μL of compound from mother plate to intermediate (daughter plate) 1:40 dilution, then 5 μL intermediate to cell (daughter) plate. • Once all cells are treated place the cells back to the incubator and incubate for 6 hours. • Dilute the capture antibody (total MCM2 #A300-122A) 1 in 250 in the required volume of PBS (5 mL per assay plate, plus 5 mL for dead volume) and add 50 μL to each well of a Hybond plate. Seal the plate and incubate at room temperature for a minimum of 2 hours. • Defrost aliquot of Invitrogen Cell Extraction Buffer (FNN0011) on ice and supplement with appropriate volume of both Sigma protease inhibitor cocktail (P-2714) and PMSF (final cone 1 mM from a 1 M stock in DMSO). • After the 6 hour cell treatment time, tap out the media from the assay plates and place them in the −80° C. freezer for at least 5 minutes. • Remove plates from freezer and add 20 μL of ice cold complete lysis buffer, with the multidrop. Incubate cells for 30 minutes at 4° C. • Add 80 μL per well 2% BSA. • Flick out the remaining liquid from the capture plate and transfer 80 μL from the lysis plate to the same wells in the capture/ELISA plate, using the Biomek. Cover with plate seal and incubate plates overnight at 4° C. • Wash plates with PBS, remove any residual remaining liquid and add 50 μL per well of pMCM2 Ser53 antibody (#A300-756A) diluted 1 in 100 in 2% BSA. Cover plate and incubate at room temperature for 2 hours with gentle shaking. • Wash plates with PBS, remove any residual remaining liquid and Incubate with 50 μL goat anti rabbit antibody (1 in 800 dilution in 2% BSA), for 1 hour at room temperature. • Wash plates with PBS, remove any residual remaining liquid and add 50 μL mixed SuperSignal Pico substrate. • Incubate each plate for 5 minutes at room temperature shielding the plates from direct light (with a cover plate). Read plates with the luminescent detection. Results

Cdc7/Dbf4, sequence (O00311 whole entry): as the sequence (O00311 whole entry) above
Cdc7/Dbf4, sequence (Q9UBU7 whole entry partner): as the sequence (Q9UBU7 whole entry partner) above

| IC50 (Cdc7/Dbf4) [nM] | EC50 (Cdc7 [1]) [nM] | EC50 (Cdc7 [2]) [nM] | Structure (SMILES) |
| --- | --- | --- | --- |
| 1.95 | 44.7 | 1170 | O=c1[nH]c(-c2cn[nH]c2C(F)(F)F)nc(N2CCNCC(F)(F)C2)c1Cl [Compound 45, 5-chloro-4-(6,6-difluoro-1,4-diazepan-1-yl)-2-[5-(trifluoromethyl)-1H-pyrazol-4-yl]-1H-pyrimidin-6-one] |
| 1.66 | 151 |  | CC1(C)CNCCN1c1nc(-c2cn[nH]c2C(F)(F)F)[nH]c(=O)c1Cl [Compound 46, 5-chloro-4-(2,2-dimethylpiperazin-1-yl)-2-[5-(trifluoromethyl)-1H-pyrazol-4-yl]-1H-pyrimidin-6-one] |

The remaining lines, values behind:

| Structure (SMILES) | IC50 (Cdc7/Dbf4) [nM] | EC50 (Cdc7 [1]) [nM] | EC50 (Cdc7 [2]) [nM] |
| --- | --- | --- | --- |
| O=c1[nH]c(-c2cn[nH]c2C(F)(F)F)nc(N2CCOCC2)c1Cl [Compound 47, 5-chloro-4-morpholino-2-[5-(trifluoromethyl)-1H-pyrazol-4-yl]-1H-pyrimidin-6-one] | 0.776 | 38 | 1170 |
| Cc1[nH]ncc1-c1nc(N2CCNC[C@H]2C)c(Cl)c(=O)[nH]1 [Compound 48, 5-chloro-4-[(2R)-2-methylpiperazin-1-yl]-2-(5-methyl-1H-pyrazol-4-yl)-1H-pyrimidin-6-one] | 2.24 | 457 |  |
| O=c1[nH]c(-c2c[nH]c3ncccc23)nc(N2CCNCC(F)(F)C2)c1Cl [Compound 52, 5-chloro-4-(6,6-difluoro-1,4-diazepan-1-yl)-2-(1H-pyrrolo[2,3-b]pyridin-3-yl)-1H-pyrimidin-6-one] | 7.08 | 851 | 5750 |
| C[C@@H]1COCCN1c1nc(-c2c[nH]c3ncccc23)[nH]c(=O)c1Cl [Compound 53, 5-chloro-4-[(3R)-3-methylmorpholin-4-yl]-2-(1H-pyrrolo[2,3-b]pyridin-3-yl)-1H-pyrimidin-6-one] | 1.29 | 33.1 | 955 |
